# PubChem BioAssay (NCI)
#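 Cells were grown in 96-well plates and exposed to each compound for 48 hours at five concentrations; endpoints were interpolated linearly between bracketing concentrations, or set to the highest concentration if not reached. GI50 marks 50% less growth. The concentration for full growth arrest is given as TGI.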 Where a SMILES comes first, the peptide text is derived from it. The star is where a group is joined. Palmitoyl = CCCCCCCCCCCCCCCC(=O)*
# Key:
# Experiment in all cases: DTP human tumour cell line panel, 48 h
# MCF7 breast = tested on: MCF7 breast
# UACC-257 melanoma = tested on: UACC-257 melanoma
# HL-60(TB) leukemia = tested on: HL-60(TB) leukemia
# OVCAR-3 ovarian = tested on: OVCAR-3 ovarian
# NCI-H226 lung = tested on: NCI-H226 lung
# CAKI-1 renal = tested on: CAKI-1 renal
# MALME-3M melanoma = tested on: MALME-3M melanoma
# M14 melanoma = tested on: M14 melanoma
# RPMI-8226 leukemia = tested on: RPMI-8226 leukemia
# NCI-H522 lung = tested on: NCI-H522 lung
SMILES,TGI (MCF7 breast),TGI (UACC-257 melanoma),TGI (HL-60(TB) leukemia),TGI (OVCAR-3 ovarian),TGI (NCI-H226 lung),TGI (CAKI-1 renal),TGI (MALME-3M melanoma),TGI (M14 melanoma),TGI (RPMI-8226 leukemia),TGI (NCI-H522 lung),GI50 (MCF7 breast),GI50 (NCI-H522 lung),GI50 (HL-60(TB) leukemia),GI50 (OVCAR-3 ovarian),GI50 (NCI-H226 lung),GI50 (CAKI-1 renal),GI50 (MALME-3M melanoma),GI50 (RPMI-8226 leukemia),GI50 (UACC-257 melanoma),GI50 (M14 melanoma)
Cc1c(-c2ccccc2)[nH]c2cc(Cl)ccc2c1=O,> 100 µM,> 100 µM,> 100 µM,> 100 µM,68 µM,> 100 µM,> 100 µM,> 100 µM,> 100 µM,–,–,–,–,–,–,–,–,–,–,–
Cn1c(-c2ccccc2)cc(-c2cccs2)c1-c1cccs1,> 100 µM,> 51 µM,> 100 µM,> 100 µM,> 100 µM,> 100 µM,> 100 µM,–,> 100 µM,> 100 µM,–,–,–,–,–,–,–,–,–,–
c1ccc(-c2nc(N3CCNCC3)c3oc(-c4ccccc4)nc3n2)cc1,3.31 µM,–,4.26 µM,3.21 µM,5.05 µM,3.18 µM,3.17 µM,–,5.16 µM,4.51 µM,1.48 µM,1.99 µM,2.03 µM,1.74 µM,2.11 µM,1.66 µM,1.7 µM,2.03 µM,–,–
CCCC1CCC(=C2C(=O)CCC2=O)O1 (centres undefined),> 100 µM,> 100 µM,> 100 µM,> 100 µM,> 100 µM,> 100 µM,–,> 100 µM,> 100 µM,> 100 µM,–,–,–,–,–,–,–,–,–,–
C/C(=N/N=C(\[O-])c1ccncc1)C(F)(F)F.C/C(=N\N=C(/[O-])c1ccncc1)C(F)(F)F.[Ni+2],–,> 1 µM,> 1 µM,–,> 1 µM,–,> 1 µM,–,–,–,–,–,–,–,> 1 µM,–,> 1 µM,–,> 1 µM,–
Nc1nc(Nc2ccccc2)c2[nH]cnc2n1,> 100 µM,> 100 µM,> 100 µM,> 100 µM,> 100 µM,> 100 µM,> 100 µM,> 100 µM,> 100 µM,> 100 µM,–,–,–,–,–,–,–,–,–,–
CON(C)c1nc(N(C)OC)nc(N(C)OC)n1,> 10 µM,–,> 10 µM,> 10 µM,> 10 µM,> 10 µM,> 10 µM,> 10 µM,> 10 µM,> 10 µM,–,–,–,–,–,–,–,–,–,–
COc1cc(C(C)O)c[n+](Cc2ccccc2)c1 (centres undefined),–,> 100 µM,> 100 µM,> 100 µM,> 100 µM,> 100 µM,> 100 µM,> 100 µM,> 100 µM,> 100 µM,–,–,–,–,–,–,–,–,–,–
CCOC(=O)c1c(C)n(-c2ccc(Cl)cc2)c2c1cc(O)c1[nH]c3c(c12)CCCC3,> 100 µM,> 100 µM,> 100 µM,> 100 µM,> 100 µM,> 100 µM,> 100 µM,> 100 µM,> 100 µM,60.4 µM,–,–,–,–,–,–,–,–,–,–
Nc1[nH]c(=O)nc2c1cnn2C1CCCCO1 (centres undefined),–,> 100 µM,> 100 µM,–,> 100 µM,> 100 µM,> 100 µM,> 100 µM,> 100 µM,–,–,–,–,–,–,–,–,–,–,–
CCCCCCCCCCCCCCCC(=O)N1CCCC1C(=O)NCC(=O)NC(Cc1ccccc1)C(=O)NC(C)C(=O)NC(CO)C(=O)NC(Cc1ccc(O)cc1)C(=O)NC(CCCCN)C(=O)NC(CC(C)C)C(=O)NC(CCCN=C(N)N)C(=O)N1CCCC1C(=O)NCC(N)=O (centres undefined) (Palmitoyl-PGFASYKLRPG-NH2; configuration not given here),42.8 µM,52.7 µM,31 µM,56.6 µM,35.6 µM,32.1 µM,47.3 µM,35.3 µM,16.4 µM,46.9 µM,18.2 µM,20.2 µM,17.2 µM,24.2 µM,15.9 µM,12.4 µM,18 µM,4.36 µM,26.4 µM,16.8 µM
O[C@@]12Cc3c([nH]c4ccccc34)[C@@H]3Oc4cccc5c4[C@@]31CCN(CC1CC1)[C@@H]2C5,31.3 µM,42 µM,–,36.8 µM,–,34.2 µM,33.9 µM,39.4 µM,41.2 µM,38 µM,–,–,–,–,–,–,–,–,–,–
CC(N)Cc1ccc(Cl)c(Cl)c1 (centres undefined),–,54.9 µM,42.4 µM,> 100 µM,> 100 µM,74.5 µM,35.5 µM,33.9 µM,> 84.6 µM,> 66.9 µM,–,–,–,–,–,–,–,–,–,–
CN1C(c2ccccc2)CC(=O)C(N)C1c1ccccc1 (centres undefined),–,> 87.1 µM,56.7 µM,> 86.3 µM,> 100 µM,> 75.2 µM,50 µM,> 69.2 µM,44.1 µM,33.7 µM,–,–,–,–,–,–,–,–,–,–
CC(C)C(C(=O)O)N1C(=O)c2ccccc2C1=O (centres undefined),> 100 µM,> 100 µM,> 100 µM,> 100 µM,> 100 µM,> 100 µM,> 100 µM,> 100 µM,> 100 µM,> 100 µM,–,–,–,–,–,–,–,–,–,–
Nc1nc(O)c2ncn([C@H]3CC[C@@H](CO)O3)c2n1,> 100 µM,> 100 µM,–,> 100 µM,> 100 µM,> 100 µM,> 100 µM,> 100 µM,> 100 µM,–,–,–,–,–,–,–,–,–,–,–
C[N+](C)(C)c1ncnc2c1ncn2C1CC(O)C(CO)O1 (centres undefined),> 100 µM,> 100 µM,> 100 µM,> 100 µM,> 100 µM,> 100 µM,> 100 µM,> 100 µM,> 100 µM,> 100 µM,–,–,–,–,–,–,–,–,–,–
